# Data reported in US20250195671A1, “COVALENT ANESTHETIC-POLYMER CONJUGATES FOR PROLONGED LOCAL ANESTHESIA” (priority 2017, published 2025).
# Where two headings read alike, the source gives them in different places.
# Experiments:
# sciatic nerve [1] = details: rat, in vivo
# [2] = system: sciatic nerve and surrounding tissues; details: rat, in vivo
# rat sciatic nerve = details: rat model; cited from earlier work
# [3] = in vivo; cited from earlier work
# [4] = cited from earlier work
# sciatic nerve [5] = system: sciatic nerve
# rat = details: in vivo
molecule,measurement,setting,value
"N=C1NC(O)[C@H]2[C@@H]3OC4(O)OC(C(O)[C@@]2(N1)[C@@H]4O)[C@]3(O)CO (some centres unmarked) [TTX, Tetrodotoxin]","blockade, % of animals",sciatic nerve [1],100%
same,"nerve blockade, % of animals",sciatic nerve [1],100%
same,"successful block, % of animals",sciatic nerve [1],100%
same,"Median inflammation score (range), Day 4",[2],0.5(0-1)
same,"Median inflammation score (range), Day 14",[2],0(0-0)
same,"Median myotoxicity score (range), Day 4",[2],0(0-0)
same,"Median myotoxicity score (range), Day 14",[2],0.5(0-1)^
same,"myotoxicity and inflammation, microscopic examination",[2],did not reveal significant myotoxicity and inflammation
"COc1cc(CNC(=O)CCCC/C=C/C(C)C)ccc1O [capsaicin, 8-Methyl-N-vanillyl-trans-6-nonenamide]",minimum effective dose to produce nerve blockade,rat sciatic nerve,approximately 50 μg
same,pharmacokinetic half-life,[3],approximately 24 hours
same,solubility,"[4]; alcohol, fats and oils",freely soluble
same,solubility,[4]; cold water,insoluble
O=C1OC2(c3ccc(O)cc3Oc3cc(O)ccc32)c2ccccc21 [fluorescein sodium],fluorescence in the nerve,"sciatic nerve [5]; 0.25 mg in 0.5 mL of PBS, 1 and 4 hours",No fluorescence was observed in the nerve
same,fluorescence in the nerve,"sciatic nerve [5]; 0.25 mg in 0.5 mL of PEG200, four hours after injection",none
same,fluorescence in the nerve,"sciatic nerve [5]; 0.25 mg in 0.5 mL of PEG200, one hour after injection",fluorescence was observed throughout the nerve
poly(glycerol sebacate) [TgD8],Contralateral block (%),rat,0%
same,Mortality (%),rat,0%
